Results as given in paper PMC6704710, “Preclinical evaluation of 3D185, a novel potent inhibitor of FGFR1/2/3 and CSF-1R, in FGFR-dependent and macrophage-dominant cancer models” (Journal of Experimental & Clinical Cancer Research : CR, 2019).

Legend:
PhKγ2(h) = target: T1, PhKγ2(h) (Homo sapiens, UniProt P15735); assay: Eurofins kinase panel; format: biochemical; conditions: read-out: Inhibition rate (%)
T1 construct: purchased Eurofins (KinaseProfiler)
T1 sequence (P15735 1-406): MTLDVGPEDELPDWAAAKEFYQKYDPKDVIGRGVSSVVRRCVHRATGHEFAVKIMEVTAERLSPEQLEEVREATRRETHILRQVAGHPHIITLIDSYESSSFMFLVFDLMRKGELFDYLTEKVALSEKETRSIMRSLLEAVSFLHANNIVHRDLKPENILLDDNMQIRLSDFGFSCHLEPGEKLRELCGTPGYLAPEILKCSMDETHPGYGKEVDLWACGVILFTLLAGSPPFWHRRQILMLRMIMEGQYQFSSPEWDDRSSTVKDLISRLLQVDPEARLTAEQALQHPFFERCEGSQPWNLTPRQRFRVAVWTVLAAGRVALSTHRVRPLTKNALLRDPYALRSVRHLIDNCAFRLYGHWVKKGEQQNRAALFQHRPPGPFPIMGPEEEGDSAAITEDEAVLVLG

TAO1(h) = target: T2, TAO1(h) (Homo sapiens, UniProt Q7L7X3); assay: Eurofins kinase panel; format: biochemical; conditions: read-out: Inhibition rate (%)
T2 construct: purchased Eurofins (KinaseProfiler)
T2 sequence (Q7L7X3 1-1001): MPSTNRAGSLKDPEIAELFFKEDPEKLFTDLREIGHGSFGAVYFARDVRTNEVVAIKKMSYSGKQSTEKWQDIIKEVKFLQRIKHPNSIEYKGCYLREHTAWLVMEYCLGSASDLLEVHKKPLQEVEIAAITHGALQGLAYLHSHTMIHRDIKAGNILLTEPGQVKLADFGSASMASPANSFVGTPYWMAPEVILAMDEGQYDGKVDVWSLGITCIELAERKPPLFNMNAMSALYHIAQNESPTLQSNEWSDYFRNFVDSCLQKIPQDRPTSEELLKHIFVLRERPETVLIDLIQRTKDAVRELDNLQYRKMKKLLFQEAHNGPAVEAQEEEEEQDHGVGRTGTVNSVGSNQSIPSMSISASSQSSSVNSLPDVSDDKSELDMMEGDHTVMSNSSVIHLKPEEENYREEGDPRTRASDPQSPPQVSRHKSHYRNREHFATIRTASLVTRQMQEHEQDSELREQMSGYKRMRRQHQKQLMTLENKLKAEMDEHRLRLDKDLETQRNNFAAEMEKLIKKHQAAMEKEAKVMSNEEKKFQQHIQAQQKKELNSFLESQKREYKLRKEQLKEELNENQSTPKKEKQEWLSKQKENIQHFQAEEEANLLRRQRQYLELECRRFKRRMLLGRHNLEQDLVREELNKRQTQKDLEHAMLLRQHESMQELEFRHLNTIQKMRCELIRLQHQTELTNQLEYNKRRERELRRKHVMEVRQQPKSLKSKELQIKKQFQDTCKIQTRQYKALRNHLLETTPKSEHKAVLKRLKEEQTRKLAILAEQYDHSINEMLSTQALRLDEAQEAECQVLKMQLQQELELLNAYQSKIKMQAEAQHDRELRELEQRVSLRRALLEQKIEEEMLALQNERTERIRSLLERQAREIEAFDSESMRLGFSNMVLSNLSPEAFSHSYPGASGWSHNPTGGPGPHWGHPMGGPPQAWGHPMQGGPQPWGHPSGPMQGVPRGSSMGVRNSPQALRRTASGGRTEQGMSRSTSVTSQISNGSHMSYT

[1] = tested on: CSF-1-differentiated macrophages induced RT112 cell migration; assay: Tumor cell migration assay (Transwell co-culture); format: cell-based, human; conditions: 25 nM, 24 h
DRAK1(h) = target: T3, DRAK1(h) (Homo sapiens, UniProt Q9UEE5); assay: Eurofins kinase panel; format: biochemical; conditions: read-out: Inhibition rate (%)
T3 construct: purchased Eurofins (KinaseProfiler)
T3 sequence (Q9UEE5 1-414): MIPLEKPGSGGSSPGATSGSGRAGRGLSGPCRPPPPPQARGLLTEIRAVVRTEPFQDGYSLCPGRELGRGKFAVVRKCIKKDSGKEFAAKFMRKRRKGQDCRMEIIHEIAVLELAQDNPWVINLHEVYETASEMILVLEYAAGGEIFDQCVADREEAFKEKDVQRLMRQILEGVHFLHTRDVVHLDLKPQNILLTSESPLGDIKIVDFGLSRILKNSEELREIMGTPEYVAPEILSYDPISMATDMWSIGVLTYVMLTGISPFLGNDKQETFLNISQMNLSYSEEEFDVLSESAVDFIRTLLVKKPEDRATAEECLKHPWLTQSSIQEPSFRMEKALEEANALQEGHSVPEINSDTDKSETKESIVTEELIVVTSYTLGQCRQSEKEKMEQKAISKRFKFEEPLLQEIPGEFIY

FGFR1 = target: T4, FGFR1 (Homo sapiens, UniProt P11362); assay: Kinase inhibition assay (ELISA); format: biochemical
T4 construct: purchased Eurofins (Fremont, United States)
Procedure: Active FGFR1–4, VEGFR1, KDR, VEGFR3, PDGFRα and PDGFRβ proteins were purchased from Eurofins (Fremont, United States), and kinase activity was assessed using ELISA, as previously reported. […]. Increasing concentrations of ATP were diluted for the kinase reaction in the ATP competition assay. CSF-1R kinase activity was analyzed using the Z’-LYTE™ Kinase Assay Kit (Thermo Fisher, United States). The assay formats are described in the SelectScreen Kinase Profiling Service Zlyte protocol. IC50 values were calculated by dose-response curve fitting using Prism (Graph Pad).

STK32B(h) = target: T5, STK32B(h) (Homo sapiens, UniProt Q9NY57); assay: Eurofins kinase panel; format: biochemical; conditions: read-out: Inhibition rate (%)
T5 construct: purchased Eurofins (KinaseProfiler)

FGFR2 = target: T6, FGFR2 (Homo sapiens, UniProt P21802); assay: Kinase inhibition assay (ELISA); format: biochemical; conditions: mean ± SD
T6 construct: purchased Eurofins (Fremont, United States)

[2] = tested on: MC38 colorectal adenocarcinoma model; assay: In vivo antitumor activity, MC38 model; design: species or system C57BL/6 mice; conditions: oral once daily 23 days
Procedure: For the MC38 xenograft model, 6-week-old C57BL/6 mice were housed and maintained under specific pathogen-free conditions. Tumor cells (2 × 10^6 in 200 μL) were injected subcutaneously (s.c.) into the right flanks of C57BL/6 mice. […] The tumors were measured twice per week using a microcaliper. Tumor volume (TV) was calculated as follows: TV = (length × width^2)/2. In addition, the individual relative tumor volume (RTV) was calculated as follows: RTV = Vt / V0, where Vt is the volume on a particular day and V0 is the volume at the beginning of the treatment. The RTV is shown on the indicated days as the […] ± SEM for the indicated groups of mice.

PKCη(h) = target: T7, PKCη(h) (Homo sapiens, UniProt P24723); assay: Eurofins kinase panel; format: biochemical; conditions: read-out: Inhibition rate (%)
T7 construct: purchased Eurofins (KinaseProfiler)
T7 sequence (P24723 whole entry): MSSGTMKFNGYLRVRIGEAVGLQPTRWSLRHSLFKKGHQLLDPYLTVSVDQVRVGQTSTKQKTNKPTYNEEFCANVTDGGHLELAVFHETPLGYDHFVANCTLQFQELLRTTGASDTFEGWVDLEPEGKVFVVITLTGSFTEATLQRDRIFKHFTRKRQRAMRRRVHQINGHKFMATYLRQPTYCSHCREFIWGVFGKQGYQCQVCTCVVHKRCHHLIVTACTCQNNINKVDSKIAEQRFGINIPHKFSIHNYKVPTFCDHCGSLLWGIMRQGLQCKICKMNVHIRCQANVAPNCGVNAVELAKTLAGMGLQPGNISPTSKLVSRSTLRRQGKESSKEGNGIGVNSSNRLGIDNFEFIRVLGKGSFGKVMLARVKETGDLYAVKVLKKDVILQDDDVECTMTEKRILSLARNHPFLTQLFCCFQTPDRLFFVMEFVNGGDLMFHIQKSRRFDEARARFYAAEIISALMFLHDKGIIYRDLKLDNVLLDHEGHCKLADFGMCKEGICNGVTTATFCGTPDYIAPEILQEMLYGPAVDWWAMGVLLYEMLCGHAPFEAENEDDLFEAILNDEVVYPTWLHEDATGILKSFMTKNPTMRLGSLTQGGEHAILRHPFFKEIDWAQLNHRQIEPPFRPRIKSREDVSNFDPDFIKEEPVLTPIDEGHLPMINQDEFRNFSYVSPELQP

T4 sequence (P11362 22-822): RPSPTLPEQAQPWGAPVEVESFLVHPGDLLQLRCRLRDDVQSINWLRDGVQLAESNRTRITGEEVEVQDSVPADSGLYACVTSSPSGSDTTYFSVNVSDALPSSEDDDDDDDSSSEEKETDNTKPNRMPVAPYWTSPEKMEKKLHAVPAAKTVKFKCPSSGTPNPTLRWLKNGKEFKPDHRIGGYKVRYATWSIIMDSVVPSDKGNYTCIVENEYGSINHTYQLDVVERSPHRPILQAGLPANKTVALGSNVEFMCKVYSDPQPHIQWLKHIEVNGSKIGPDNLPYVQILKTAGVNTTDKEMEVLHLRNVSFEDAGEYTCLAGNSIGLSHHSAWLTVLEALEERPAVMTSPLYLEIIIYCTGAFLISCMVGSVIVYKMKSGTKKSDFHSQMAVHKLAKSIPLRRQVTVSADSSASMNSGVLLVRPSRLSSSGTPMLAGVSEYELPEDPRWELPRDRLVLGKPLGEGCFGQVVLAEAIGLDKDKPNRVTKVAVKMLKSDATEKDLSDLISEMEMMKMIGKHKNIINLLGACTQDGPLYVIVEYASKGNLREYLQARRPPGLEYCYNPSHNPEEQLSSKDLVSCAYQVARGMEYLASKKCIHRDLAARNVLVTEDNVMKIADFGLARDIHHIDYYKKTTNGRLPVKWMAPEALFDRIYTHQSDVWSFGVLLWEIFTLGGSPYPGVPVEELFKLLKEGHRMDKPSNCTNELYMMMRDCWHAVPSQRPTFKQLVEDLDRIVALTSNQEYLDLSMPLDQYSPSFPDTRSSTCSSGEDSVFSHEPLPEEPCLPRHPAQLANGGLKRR
T5 sequence (Q9NY57 whole entry): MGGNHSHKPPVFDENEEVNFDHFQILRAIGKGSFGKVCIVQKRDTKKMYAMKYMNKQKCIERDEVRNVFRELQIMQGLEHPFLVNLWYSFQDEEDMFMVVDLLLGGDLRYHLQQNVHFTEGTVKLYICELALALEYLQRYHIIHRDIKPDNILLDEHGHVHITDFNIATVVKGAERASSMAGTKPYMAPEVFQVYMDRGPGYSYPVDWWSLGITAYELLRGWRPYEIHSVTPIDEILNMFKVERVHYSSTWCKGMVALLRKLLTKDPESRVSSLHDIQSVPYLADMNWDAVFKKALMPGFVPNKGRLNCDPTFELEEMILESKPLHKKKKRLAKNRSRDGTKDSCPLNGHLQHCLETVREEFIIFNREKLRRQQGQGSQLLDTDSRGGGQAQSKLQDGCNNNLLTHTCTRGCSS
T6 sequence (P21802 22-821): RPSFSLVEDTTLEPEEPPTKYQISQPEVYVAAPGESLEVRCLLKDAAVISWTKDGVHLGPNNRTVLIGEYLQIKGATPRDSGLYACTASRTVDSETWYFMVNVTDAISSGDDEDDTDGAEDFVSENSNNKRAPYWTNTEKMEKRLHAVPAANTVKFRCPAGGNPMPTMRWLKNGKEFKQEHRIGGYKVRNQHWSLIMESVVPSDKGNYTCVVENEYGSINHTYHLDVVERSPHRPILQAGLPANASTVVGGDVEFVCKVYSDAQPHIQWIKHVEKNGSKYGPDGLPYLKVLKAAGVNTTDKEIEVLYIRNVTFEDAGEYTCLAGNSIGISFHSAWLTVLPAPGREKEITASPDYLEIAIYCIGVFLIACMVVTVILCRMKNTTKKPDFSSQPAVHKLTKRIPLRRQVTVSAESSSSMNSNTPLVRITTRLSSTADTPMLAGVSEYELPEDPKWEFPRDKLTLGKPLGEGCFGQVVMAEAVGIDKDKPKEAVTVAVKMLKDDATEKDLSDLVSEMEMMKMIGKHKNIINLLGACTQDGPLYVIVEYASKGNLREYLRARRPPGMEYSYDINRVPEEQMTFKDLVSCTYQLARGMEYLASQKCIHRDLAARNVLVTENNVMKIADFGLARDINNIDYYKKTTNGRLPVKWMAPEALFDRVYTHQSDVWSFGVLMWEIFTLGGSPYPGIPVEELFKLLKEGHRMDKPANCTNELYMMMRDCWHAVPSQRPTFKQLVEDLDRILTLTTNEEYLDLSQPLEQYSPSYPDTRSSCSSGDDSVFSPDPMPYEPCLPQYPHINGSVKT

Which inhibition at 0.01 µM (PhKγ2(h); 10 nM) does the source give for `COc1cc(OC)c(Cl)c(-c2ccc3c(NC(=O)c4ccc(N5CCNC(C)(C)C5)cc4)n[nH]c3n2)c1Cl` [3D185] here?
Its inhibition at 0.01 µM is 12%.

What about the inhibition at 0.1 µM (PhKγ2(h); 100 nM) of the same compound?
The inhibition at 0.1 µM was -8%.

What about the inhibition at 1 µM (PhKγ2(h); 1000 nM) of the same compound?
Its inhibition at 1 µM is -3%.

And the inhibition at 0.01 µM (TAO1(h); 10 nM)?
Its inhibition at 0.01 µM is -2%.

What about the inhibition at 0.1 µM (TAO1(h); 100 nM) of the same compound?
Its inhibition at 0.1 µM is 6%.

And the inhibition at 1 µM (TAO1(h); 1000 nM)?
The inhibition at 1 µM was 21%.

What about the “effect on macrophage-induced RT112 cell migration” value [1] of the same compound?
The value was “blocking most cell migration”.

And the inhibition at 0.01 µM (DRAK1(h); 10 nM)?
The inhibition at 0.01 µM was -4%.

And the inhibition at 0.1 µM (DRAK1(h); 100 nM)?
Its inhibition at 0.1 µM is 7%.

And the inhibition at 1 µM (DRAK1(h); 1000 nM)?
Its inhibition at 1 µM is 14%.

What about the mode of inhibition (FGFR1; ATP competition assay) of the same compound?
Its mode of inhibition is “ATP-competitive inhibitor”.

What about the “selectivity for FGFR over PDGFRα, PDGFRβ, VEGFR1 and VEGFR3” value (FGFR1; kinase assays) of the same compound?
The value was > 2000 fold.

What about the IC50 (FGFR1; mean ± SD) of the same compound?
Its IC50 is 0.5 nM.

What about the inhibition at 0.01 µM (STK32B(h); 10 nM) of the same compound?
Its inhibition at 0.01 µM is 1%.

What about the inhibition at 0.1 µM (STK32B(h); 100 nM) of the same compound?
Its inhibition at 0.1 µM is 1%.

And the inhibition at 1 µM (STK32B(h); 1000 nM)?
Its inhibition at 1 µM is 0%.

What about the IC50 (FGFR2) of the same compound?
The IC50 was 1.3 nM.

And the “effect on MC38 tumor growth” value [2]?
Its value is “delayed tumor growth”.

And the inhibition at 0.01 µM (PKCη(h); 10 nM)?
Its inhibition at 0.01 µM is -10%.

What about the inhibition at 0.1 µM (PKCη(h); 100 nM) of the same compound?
The inhibition at 0.1 µM was -1%.

What about the inhibition at 1 µM (PKCη(h); 1000 nM) of the same compound?
The inhibition at 1 µM was -9%.
